Results published in the NIST ThermoML archive (doi:10.1021/je500696p).
Numbers after ± are expanded uncertainties.

How the values were obtained:
[1] = xn = mol fraction of the nth substance listed; conditions: 100 kPa, Liquid, Vibrating tube method
[2] = excess molar enthalpy (molar enthalpy of mixing); xn = mol fraction of the nth substance listed; conditions: 100 kPa, Liquid, Calvet calorimetry

CCCC[N+](C)(C)C.O=S(=O)([N-]S(=O)(=O)C(F)(F)F)C(F)(F)F [butyltrimethylammonium bis(trifluoromethylsulfonyl)imide] + CN(C)C=O
Conditions	excess molar enthalpy [kcal/mol]	mass density [kg/m3]
[1], 293.15 K, x2 = 0	–	1397.1 ± 4.2
[1], 293.15 K, x2 = 0.1268	–	1379.7 ± 4.2
[1], 293.15 K, x2 = 0.2011	–	1367.7 ± 4.1
[1], 293.15 K, x2 = 0.3028	–	1348.7 ± 4.1
[1], 293.15 K, x2 = 0.3824	–	1331.3 ± 4
[1], 293.15 K, x2 = 0.5078	–	1297.4 ± 3.9
[1], 293.15 K, x2 = 0.6249	–	1255.8 ± 3.8
[1], 293.15 K, x2 = 0.7548	–	1191.6 ± 3.6
[1], 293.15 K, x2 = 0.8764	–	1101.3 ± 3.3
[1], 293.15 K, x2 = 0.9157	–	1061.9 ± 3.2
[1], 295.15 K, x2 = 0	–	1395.3 ± 4.2
[1], 295.15 K, x2 = 0.1268	–	1377.9 ± 4.2
[1], 295.15 K, x2 = 0.2011	–	1365.9 ± 4.1
[1], 295.15 K, x2 = 0.3028	–	1346.9 ± 4.1
[1], 295.15 K, x2 = 0.3824	–	1329.5 ± 4
[1], 295.15 K, x2 = 0.5078	–	1295.6 ± 3.9
[1], 295.15 K, x2 = 0.6249	–	1253.9 ± 3.8
[1], 295.15 K, x2 = 0.7548	–	1189.7 ± 3.6
[1], 295.15 K, x2 = 0.8764	–	1099.4 ± 3.3
[1], 295.15 K, x2 = 0.9157	–	1060 ± 3.2
[1], 298.15 K, x2 = 0	–	1392.7 ± 4.2
[1], 298.15 K, x2 = 0.1268	–	1375.3 ± 4.2
[1], 298.15 K, x2 = 0.2011	–	1363.2 ± 4.1
[1], 298.15 K, x2 = 0.3028	–	1344.2 ± 4
[1], 298.15 K, x2 = 0.3824	–	1326.8 ± 4
[1], 298.15 K, x2 = 0.5078	–	1292.8 ± 3.9
[1], 298.15 K, x2 = 0.6249	–	1251.2 ± 3.8
[1], 298.15 K, x2 = 0.7548	–	1186.8 ± 3.6
[1], 298.15 K, x2 = 0.8764	–	1096.5 ± 3.3
[1], 298.15 K, x2 = 0.9157	–	1057.1 ± 3.2
[1], 303.15 K, x2 = 0	–	1388.3 ± 4.2
[1], 303.15 K, x2 = 0.1268	–	1370.8 ± 4.1
[1], 303.15 K, x2 = 0.2011	–	1358.8 ± 4.1
[1], 303.15 K, x2 = 0.3028	–	1339.7 ± 4
[1], 303.15 K, x2 = 0.3824	–	1322.2 ± 4
[1], 303.15 K, x2 = 0.5078	–	1288.2 ± 3.9
[1], 303.15 K, x2 = 0.6249	–	1246.5 ± 3.7
[1], 303.15 K, x2 = 0.7548	–	1182.1 ± 3.6
[1], 303.15 K, x2 = 0.8764	–	1091.8 ± 3.3
[1], 303.15 K, x2 = 0.9157	–	1052.4 ± 3.2
[1], 308.15 K, x2 = 0	–	1384 ± 4.2
[1], 308.15 K, x2 = 0.1268	–	1366.4 ± 4.1
[1], 308.15 K, x2 = 0.2011	–	1354.3 ± 4.1
[1], 308.15 K, x2 = 0.3028	–	1335.2 ± 4
[1], 308.15 K, x2 = 0.3824	–	1317.7 ± 4
[1], 308.15 K, x2 = 0.5078	–	1283.6 ± 3.9
[1], 308.15 K, x2 = 0.6249	–	1241.8 ± 3.7
[1], 308.15 K, x2 = 0.7548	–	1177.4 ± 3.5
[1], 308.15 K, x2 = 0.8764	–	1087 ± 3.3
[1], 308.15 K, x2 = 0.9157	–	1047.6 ± 3.1
[1], 313.15 K, x2 = 0	–	1379.6 ± 4.2
[1], 313.15 K, x2 = 0.1268	–	1362 ± 4.1
[1], 313.15 K, x2 = 0.2011	–	1349.9 ± 4.1
[1], 313.15 K, x2 = 0.3028	–	1330.7 ± 4
[1], 313.15 K, x2 = 0.3824	–	1313.1 ± 4
[1], 313.15 K, x2 = 0.5078	–	1279 ± 3.8
[1], 313.15 K, x2 = 0.6249	–	1237.2 ± 3.7
[1], 313.15 K, x2 = 0.7548	–	1172.7 ± 3.5
[1], 313.15 K, x2 = 0.8764	–	1082.3 ± 3.3
[1], 313.15 K, x2 = 0.9157	–	1042.8 ± 3.1
[1], 318.15 K, x2 = 0	–	1375.2 ± 4.2
[1], 318.15 K, x2 = 0.1268	–	1357.6 ± 4.1
[1], 318.15 K, x2 = 0.2011	–	1345.4 ± 4.1
[1], 318.15 K, x2 = 0.3028	–	1326.2 ± 4
[1], 318.15 K, x2 = 0.3824	–	1308.6 ± 3.9
[1], 318.15 K, x2 = 0.5078	–	1274.5 ± 3.8
[1], 318.15 K, x2 = 0.6249	–	1232.6 ± 3.7
[1], 318.15 K, x2 = 0.7548	–	1168 ± 3.5
[1], 318.15 K, x2 = 0.8764	–	1077.5 ± 3.2
[1], 318.15 K, x2 = 0.9157	–	1038.1 ± 3.1
[1], 323.15 K, x2 = 0	–	1370.9 ± 4.1
[1], 323.15 K, x2 = 0.1268	–	1353.2 ± 4.1
[1], 323.15 K, x2 = 0.2011	–	1341 ± 4
[1], 323.15 K, x2 = 0.3028	–	1321.8 ± 4
[1], 323.15 K, x2 = 0.3824	–	1304.1 ± 3.9
[1], 323.15 K, x2 = 0.5078	–	1269.9 ± 3.8
[1], 323.15 K, x2 = 0.6249	–	1227.9 ± 3.7
[1], 323.15 K, x2 = 0.7548	–	1163.3 ± 3.5
[1], 323.15 K, x2 = 0.8764	–	1072.8 ± 3.2
[1], 323.15 K, x2 = 0.9157	–	1033.3 ± 3.1
[1], 328.15 K, x2 = 0	–	1366.6 ± 4.1
[1], 328.15 K, x2 = 0.1268	–	1348.8 ± 4.1
[1], 328.15 K, x2 = 0.2011	–	1336.6 ± 4
[1], 328.15 K, x2 = 0.3028	–	1317.3 ± 4
[1], 328.15 K, x2 = 0.3824	–	1299.7 ± 3.9
[1], 328.15 K, x2 = 0.5078	–	1265.4 ± 3.8
[1], 328.15 K, x2 = 0.6249	–	1223.3 ± 3.7
[1], 328.15 K, x2 = 0.7548	–	1158.6 ± 3.5
[1], 328.15 K, x2 = 0.8764	–	1068 ± 3.2
[1], 328.15 K, x2 = 0.9157	–	1028.6 ± 3.1
[1], 333.15 K, x2 = 0	–	1362.3 ± 4.1
[1], 333.15 K, x2 = 0.1268	–	1344.5 ± 4.1
[1], 333.15 K, x2 = 0.2011	–	1332.3 ± 4
[1], 333.15 K, x2 = 0.3028	–	1312.9 ± 4
[1], 333.15 K, x2 = 0.3824	–	1295.2 ± 3.9
[1], 333.15 K, x2 = 0.5078	–	1260.8 ± 3.8
[1], 333.15 K, x2 = 0.6249	–	1218.7 ± 3.7
[1], 333.15 K, x2 = 0.7548	–	1153.9 ± 3.5
[1], 333.15 K, x2 = 0.8764	–	1063.3 ± 3.2
[1], 333.15 K, x2 = 0.9157	–	1023.8 ± 3.1
[2], 308.15 K, x2 = 0.1285	-0.0987 ± 0.00406	–
[2], 308.15 K, x2 = 0.2488	-0.167 ± 0.00693	–
[2], 308.15 K, x2 = 0.2496	-0.168 ± 0.00693	–
[2], 308.15 K, x2 = 0.2543	-0.168 ± 0.00693	–
[2], 308.15 K, x2 = 0.3983	-0.232 ± 0.00956	–
[2], 308.15 K, x2 = 0.5182	-0.272 ± 0.011	–
[2], 308.15 K, x2 = 0.5211	-0.272 ± 0.011	–
[2], 308.15 K, x2 = 0.6283	-0.284 ± 0.0115	–
[2], 308.15 K, x2 = 0.7679	-0.253 ± 0.0103	–
[2], 308.15 K, x2 = 0.889	-0.162 ± 0.00669	–
[2], 313.15 K, x2 = 0.1226	-0.0961 ± 0.00382	–
[2], 313.15 K, x2 = 0.2487	-0.167 ± 0.00693	–
[2], 313.15 K, x2 = 0.261	-0.174 ± 0.00717	–
[2], 313.15 K, x2 = 0.3939	-0.232 ± 0.00932	–
[2], 313.15 K, x2 = 0.5209	-0.273 ± 0.0112	–
[2], 313.15 K, x2 = 0.5249	-0.275 ± 0.0112	–
[2], 313.15 K, x2 = 0.625	-0.286 ± 0.0117	–
[2], 313.15 K, x2 = 0.7717	-0.247 ± 0.01	–
[2], 313.15 K, x2 = 0.8796	-0.174 ± 0.00717	–
[2], 323.15 K, x2 = 0.129	-0.102 ± 0.00406	–
[2], 323.15 K, x2 = 0.2459	-0.169 ± 0.00693	–
[2], 323.15 K, x2 = 0.2473	-0.169 ± 0.00693	–
[2], 323.15 K, x2 = 0.3807	-0.229 ± 0.00932	–
[2], 323.15 K, x2 = 0.5174	-0.278 ± 0.0112	–
[2], 323.15 K, x2 = 0.5224	-0.279 ± 0.0115	–
[2], 323.15 K, x2 = 0.6286	-0.291 ± 0.012	–
[2], 323.15 K, x2 = 0.7693	-0.26 ± 0.0105	–
[2], 323.15 K, x2 = 0.8804	-0.176 ± 0.00717	–
